This is an account of results in ChEMBL document CHEMBL1149865, “Pyridinium alkaloid-coupled secoiridoids from the flower buds of Lonicera japonica” (2008).

This experiment is described as follows: Antiinflammatory activity in rat polymorphonuclear leukocytes assessed as inhibition of platelet activating factor-induced release of glucuronidase at 10 uM after 15 mins. The conditions noted are these: 0.25 h. It counts as functional.
Turning to `C=C[C@H]1[C@H](O[C@@H]2O[C@H](CO)[C@@H](O)[C@H](O)[C@H]2O)OC=C(C(=O)OC)[C@H]1/C=C/c1cc(C(=O)[O-])c[n+](CCO)c1` [LONIJAPOSIDE B], the inhibition (commonly the percentage by which the read-out fell short of the control) at 10 µM turned out to be 35.8%.
As for `C=C[C@H]1[C@H](O[C@@H]2O[C@H](CO)[C@@H](O)[C@H](O)[C@H]2O)OC=C(C(=O)OC)[C@H]1/C=C/c1cc(C(=O)[O-])c[n+](CCCC(=O)O)c1` [LONIJAPOSIDE A], the figure is 11%; as for `C=C[C@H]1[C@H](O[C@@H]2O[C@H](CO)[C@@H](O)[C@H](O)[C@H]2O)OC=C(C(=O)O)[C@H]1/C=C/c1cc(C(=O)[O-])c[n+](CCO)c1` [LONIJAPOSIDE C], 69.5%.
